Results published in US10774064B2 (Cadent Therapeutics, Inc., priority 2016, dated 2020).

Molecular target: T1, small-conductance Ca2+-activated K+ channels (SK channels, subtype 2) (Homo sapiens, UniProt Q9H2S1)
T1 construct: expressed in transfected cells; host or cells: HEK293
Test: whole-cell patch-clamp of ionic current through SK2 channels in HEK293 cells (SC100)
Format: cell-based
Settings: concentration that increases the basal current by 100%; HEK293 cells expressing SK2 channels
In short: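 Whole-cell patch-clamp recording of current in HEK293 cells expressing SK2 channels. SC100 is the compound concentration that increases basal current by 100%.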

| SMILES | SC100 |
| --- | --- |
| Cc1cc(C)n(-c2nc(NC3CCC(F)(F)C3)cc(C3CC3)n2)n1 (centres unmarked) [Compound 217, 6-cyclopropyl-N-(3,3-difluorocyclopentyl)-2-(3,5-dimethyl-1H-pyrazol-1-yl)pyrimidin-4-amine] | + (+ means >1 uM) |
| Cc1cc(NC2CCC(F)(F)CC2)nc(-n2ccc(C(C)C)n2)n1 [Compound 218, N-(4,4-difluorocyclohexyl)-2-(3-isopropyl-1H-pyrazol-1-yl)-6-methylpyrimidin-4-amine] | ++ (++ means 200 nM-1000 nM) |
| COc1cccc(-c2nc(C)cc(NC3CCC(F)(F)CC3)n2)n1 [Compound 219, N-(4,4-difluorocyclohexyl)-2-(6-methoxypyridin-2-yl)-6-methylpyrimidin-4-amine] | + (+ means >1 uM) |
| Cc1cc(NC2CCC(F)(F)CC2)nc(-n2nc(Br)cc2C)n1 [Compound 220, 2-(3-bromo-5-methyl-1H-pyrazol-1-yl)-N-(4,4-difluorocyclohexyl)-6-methylpyrimidin-4-amine] | ++ (++ means 200 nM-1000 nM) |
| Cc1cc(NC2CCC(F)(F)CC2)nc(-n2nc(C3CC3)cc2C)n1 [Compound 221, 2-(3-cyclopropyl-5-methyl-1H-pyrazol-1-yl)-N-(4,4-difluorocyclohexyl)-6-methylpyrimidin-4-amine] | + (+ means >1 uM) |
| Cc1cc(C)n(-c2cc(C3CC3)nc(NC3CCC(F)(F)C3)n2)n1 (centres unmarked) [Compound 222, 4-cyclopropyl-N-(3,3-difluorocyclopentyl)-6-(3,5-dimethyl-1H-pyrazol-1-yl)pyrimidin-2-amine] | + (+ means >1 uM) |
| Cc1cc(NC2CCC(F)(F)CC2)nc(-n2ccc(CF)n2)n1 [Compound 223] | + (+ means >1 uM) |
| Cc1cccc(-c2nc(C)cc(NC3CCC(F)(F)CC3)n2)n1 [Compound 224, N-(4,4-difluorocyclohexyl)-6-methyl-2-(6-methylpyridin-2-yl)pyrimidin-4-amine] | + (+ means >1 uM) |
| Cc1cc(C)n(-c2nc(NC3CCC(F)(F)C3)cc(C(C)O)n2)n1 (centres unmarked) [Compound 225, 1-(6-((3,3-difluorocyclopentyl)amino)-2-(3,5-dimethyl-1H-pyrazol-1-yl)pyrimidin-4-yl)ethan-1-ol] | + (+ means >1 uM) |
| Cc1cc(C)n(-c2cc(C3CC3)nc(NC3CCC(F)(F)CC3)n2)n1 [Compound 226, 4-cyclopropyl-N-(4,4-difluorocyclohexyl)-6-(3,5-dimethyl-1H-pyrazol-1-yl)pyrimidin-2-amine] | ++ (++ means 200 nM-1000 nM) |
| Cc1cc(C)n(-c2nc(NC3CCC(F)(F)CC3)cc(N3CCOC(C(C)(C)O)C3)n2)n1 (centres unmarked) [Compound 227, 2-(4-(6-((4,4-difluorocyclohexyl)amino)-2-(3,5-dimethyl-1H-pyrazol-1-yl)pyrimidin-4-yl)morpholin-2-yl)propan-2-ol] | ++ (++ means 200 nM-1000 nM) |
| Cc1cc(C)n(-c2cc(NC3COC3)cc(NC3CCC(F)(F)CC3)n2)n1 [Compound 228, N2-(4,4-difluorocyclohexyl)-6-(3,5-dimethyl-1H-pyrazol-1-yl)-N4-(oxetan-3-yl)pyridine-2,4-diamine] | ++ (++ means 200 nM-1000 nM) |
| Cc1cc(C)n(-c2cc(CF)cc(NC3CCC(F)(F)CC3)n2)n1 [Compound 229, N-(4,4-difluorocyclohexyl)-6-(3,5-dimethyl-1H-pyrazol-1-yl)-4-(fluoromethyl)pyridin-2-amine] | ++ (++ means 200 nM-1000 nM) |
| Cc1cc(NC2CCC(F)(F)CC2)nc(-c2cccc(Cl)n2)n1 [Compound 230, 2-(6-chloropyridin-2-yl)-N-(4,4-difluorocyclohexyl)-6-methyl pyrimidin-4-amine] | + (+ means >1 uM) |
| Cc1cc(NC2CCC(F)(F)CC2)nc(-c2nc(C)cs2)n1 [Compound 231, N-(4,4-difluorocyclohexyl)-6-methyl-2-(4-methylthiazol-2-yl)pyrimidin-4-amine] | ++ (++ means 200 nM-1000 nM) |
| Cc1ccn(-c2nc(NC3CCC(F)(F)CC3)cc(C3COCCC3O)n2)n1 (centres unmarked) [Compound 232, 3-(6-((4,4-difluorocyclohexyl)amino)-2-(3-methyl-1H-pyrazol-1-yl)pyrimidin-4-yl)tetrahydro-2H-pyran-4-ol] | + (+ means >1 uM) |
| Cc1cc(C)n(-c2nc(NCc3cn(C)nn3)cc(NC3CCC(F)(F)CC3)n2)n1 [Compound 233, N4-(4,4-difluorocyclohexyl)-2-(3,5-dimethyl-1H-pyrazol-1-yl)-N6-((1-methyl-1H-1,2,3-triazol-4-yl)methyl)pyrimidine-4,6-diamine] | ++ (++ means 200 nM-1000 nM) |
| Cc1cc(C)n(-c2cc(NCC(C)(C)C)cc(NC3CCC(F)(F)CC3)n2)n1 [Compound 234, N2-(4,4-difluorocyclohexyl)-6-(3,5-dimethyl-1H-pyrazol-1-yl)-N4-neopentylpyridine-2,4-diamine] | + (+ means >1 uM) |
| Cc1cc(C)n(-c2nc(NCc3cnn(C)n3)cc(NC3CCC(F)(F)CC3)n2)n1 [Compound 235, N4-(4,4-difluorocyclohexyl)-2-(3,5-dimethyl-1H-pyrazol-1-yl)-N6-((2-methyl-2H-1,2,3-triazol-4-yl)methyl)pyrimidine-4,6-diamine] | ++ (++ means 200 nM-1000 nM) |

Now from value to molecule:

| SC100 | SMILES |
| --- | --- |
| + (+ means >1 uM) | Cc1cc(NC2CCC(F)(F)CC2)nc(-n2cc(C)c(CO)n2)n1 [Compound 236, (1-(4-((4,4-difluorocyclohexyl)amino)-6-methylpyrimidin-2-yl)-4-methyl-1H-pyrazol-3-yl)methanol] |
| ++ (++ means 200 nM-1000 nM) | Cc1cc(NC2CCC(F)(F)CC2)nc(-n2nc(C(F)F)cc2C)n1 [Compound 237, N-(4,4-difluorocyclohexyl)-2-(3-(difluoromethyl)-5-methyl-1H-pyrazol-1-yl)-6-methylpyrimidin-4-amine] |
| ++ (++ means 200 nM-1000 nM) | Cc1cc(C)n(-c2cc(N(C)C3COC3)cc(NC3CCC(F)(F)CC3)n2)n1 [Compound 238, N2-(4,4-difluorocyclohexyl)-6-(3,5-dimethyl-1H-pyrazol-1-yl)-N4-methyl-N4-(oxetan-3-yl)pyridine-2,4-diamine] |
| ++ (++ means 200 nM-1000 nM) | Cc1cc(C)n(-c2cc(NC(C(N)=O)C(C)C)cc(NC3CCC(F)(F)CC3)n2)n1 (centres unmarked) [Compound 239, 2-((2-((4,4-difluorocyclohexyl)amino)-6-(3,5-dimethyl-1H-pyrazol-1-yl)pyridin-4-yl)amino)-3-methylbutanamide] |
| + (+ means >1 uM) | Cc1cc(C)n(-c2cc(N(C)C3COC3)cc(N(C)C3CCC(F)(F)CC3)n2)n1 [Compound 240, N2-(4,4-difluorocyclohexyl)-6-(3,5-dimethyl-1H-pyrazol-1-yl)-N2,N4-dimethyl-N4-(oxetan-3-yl)pyridine-2,4-diamine] |
| + (+ means >1 uM) | Cc1cc(NC2CCC(F)(F)CC2)nc(-n2nc(CO)cc2C)n1 [Compound 241, (1-(4-((4,4-difluorocyclohexyl)amino)-6-methylpyrimidin-2-yl)-5-methyl-1H-pyrazol-3-yl)methanol] |
| + (+ means >1 uM) | Cc1ccn(-c2nc(NC3CCC(F)(F)CC3)cc(C3COCCC3(F)F)n2)n1 (centres unmarked) [Compound 242, N-(4,4-difluorocyclohexyl)-6-(4,4-difluorotetrahydro-2H-pyran-3-yl)-2-(3-methyl-1H-pyrazol-1-yl)pyrimidin-4-amine] |
| + (+ means >1 uM) | Cc1cc(C)n(-c2nc(NC3CCC(F)(F)CC3)cc(NC3COC3)n2)n1 [Compound 243, N4-(4,4-difluorocyclohexyl)-2-(3,5-dimethyl-1H-pyrazol-1-yl)-N6-(oxetan-3-yl)pyrimidine-4,6-diamine] |
| ++ (++ means 200 nM-1000 nM) | Cc1cc(C)n(-c2cc(OCc3cn(C)nn3)cc(NC3CCC(F)(F)CC3)n2)n1 [Compound 244, N-(4,4-difluorocyclohexyl)-6-(3,5-dimethyl-1H-pyrazol-1-yl)-4-((l-methyl-1H-1,2,3-triazol-4-yl)methoxy)pyridin-2-amine] |
| + (+ means >1 uM) | Cc1cc(NC2C[C@@H]3[C@H](C2)C3(F)F)nc(-n2ccc(C)n2)n1 (stereo partly drawn) [Compound 245, N-((1R,5S)-6,6-difluorobicyclo[3.1.0]hexan-3-yl)-6-methyl-2-(3-methyl-1H-pyrazol-1-yl)pyrimidin-4-amine] |
| +++ (+++ means <200 nM) | Cc1cc(NC2CCC(F)(F)CC2)nc(-n2cc(C)c(C(F)F)n2)n1 [Compound 246, N-(4,4-difluorocyclohexyl)-2-(3-(difluoromethyl)-4-methyl-1H-pyrazol-1-yl)-6-methylpyrimidin-4-amine] |
| ++ (++ means 200 nM-1000 nM) | Cc1cc(NC2CCC(F)(F)CC2)nc(-n2nc(C)cc2C)n1 [Compound 247, N-(4,4-difluorocyclohexyl)-2-(3,5-dimethyl-1H-pyrazol-1-yl)-6-methylpyrimidin-4-amine] |
| ++ (++ means 200 nM-1000 nM) | Cc1cc(C)n(-c2cc(NCc3cnn(C)n3)cc(NC3CCC(F)(F)CC3)n2)n1 [Compound 248, N2-(4,4-difluorocyclohexyl)-6-(3,5-dimethyl-1H-pyrazol-1-yl)-N4-((2-methyl-2H-1,2,3-triazol-4-yl)methyl)pyridine-2,4-diamine] |
| + (+ means >1 uM) | CCc1cc(C)n(-c2nc(C)cc(NC3CCC(F)(F)CC3)n2)n1 [Compound 249, N-(4,4-difluorocyclohexyl)-2-(3-ethyl-5-methyl-1H-pyrazol-1-yl)-6-methyl pyrimidin-4-amine] |
| ++ (++ means 200 nM-1000 nM) | Cc1cc(C)n(-c2cc(NCc3cnnn3C)cc(NC3CCC(F)(F)CC3)n2)n1 [Compound 250, N2-(4,4-difluorocyclohexyl)-6-(3,5-dimethyl-1H-pyrazol-1-yl)-N4-((1-methyl-1H-1,2,3-triazol-5-yl)methyl)pyridine-2,4-diamine] |
| ++ (++ means 200 nM-1000 nM) | Cc1cc(C)n(-c2cc(OCc3cnn(C)n3)cc(NC3CCC(F)(F)CC3)n2)n1 [Compound 251, N-(4,4-difluorocyclohexyl)-6-(3,5-dimethyl-1H-pyrazol-1-yl)-4-((2-methyl-2H-1,2,3-triazol-4-yl)methoxy)pyridin-2-amine] |
